This series deals with rodent carcinogenicity bioassays, tumor incidence. As to the kind of experiment: CCRIS carcinogenicity studies. As to conditions: Dose: 0. An excerpt: The CCRIS database contains chemical records with carcinogenicity, mutagenicity, tumor promotion, and tumor inhibition test results. It was developed by the National Cancer Institute (NCI). Data are derived from studies cited in primary journals, current awareness tools, NCI reports, and other sources. Test results have been reviewed by experts in carcinogenesis and mutagenesis.
CCRIS provides historical information from the years 1985 - 2011. It is no longer updated.
This is an archive assay for CCRIS carcinogenicity studies.

Calls of active or inactive are those of the source. The rule behind the calls is not given here.

For the compound `COc1cccc2c1C(=O)c1c(O)c3c(c(O)c1C2=O)C[C@@](O)(C(C)=O)C[C@@H]3O[C@H]1C[C@H](N)[C@H](O)[C@H](C)O1`, the carcinogen call (Species: RAT, Strain/Sex: SPRAGUE-DAWLEY/FEMALE, Route: INTRAVENOUS, 10 MG/KG IN SALINE ONCE (STUDY DURATION: 244 D) (STUDY DURATION: 244 D), Tumor Site: Type of Lesion: MAMMARY GLAND: TUMOR) is “active; positive”; the carcinogen call (Species: RAT, Strain/Sex: SPRAGUE-DAWLEY/FEMALE, Route: INTRAVENOUS, 10 MG/KG IN SALINE SOLUTION ONCE (STUDY DURATION: 1 YR), Tumor Site: Type of Lesion: MAMMARY GLAND: ADENOCARCINOMA) is “active; positive”; the carcinogen call (Species: RAT, Strain/Sex: SPRAGUE-DAWLEY/FEMALE, Route: SUBCUTANEOUS, 2, 4, 8 UG IN 100 µL SALINE INTO THORACIC AND ABDOMINAL MAMMARY GLANDS ONCE (STUDY DURATION: 6.5 MO), 2, 4, 8 UG IN 100 µL SALINE INTO THORACIC AND ABDOMINAL MAMMARY GLANDS ONCE (STUDY DURATION: 6.5 MO), Tumor Site: Type of Lesion: MAMMARY GLAND: TUMOR) is “active; positive”; the carcinogen call (Species: RAT, Strain/Sex: SPRAGUE-DAWLEY/MALE, Route: INTRAVENOUS, 10 MG/KG IN SALINE SOLUTION ONCE (STUDY DURATION: 1 YR), Tumor Site: Type of Lesion: MAMMARY GLAND: ADENOCARCINOMA) is “active; positive”.
With `CC(=O)Nc1ccc(N=Nc2cc(C)ccc2O)cc1`, the carcinogen call reads like this: (Species: MOUSE, Strain/Sex: B6C3F1/FEMALE, Route: ORAL, 2500, 5000 PPM IN DIET, 2500, 5000 PPM IN DIET, Tumor Site: Type of Lesion: LIVER: HEPATOCELLULAR ADENOMA) “active; positive”; (Species: MOUSE, Strain/Sex: B6C3F1/MALE, Route: ORAL, 2500, 5000 PPM IN DIET, 2500, 5000 PPM IN DIET) “inactive; negative”; (Species: RAT, Strain/Sex: F344/FEMALE, Route: ORAL, 5000, 10000 PPM IN DIET, 5000, 10000 PPM IN DIET) “inactive; negative”; (Species: RAT, Strain/Sex: F344/MALE, Route: ORAL, 5000, 10000 PPM IN DIET, 5000, 10000 PPM IN DIET, Tumor Site: Type of Lesion: LIVER: NEOPLASTIC NODULE) “active; positive”.

These data come from PubChem BioAssay AID1259411 (Chemical Carcinogenesis Research Information System (CCRIS), 2018).
